Test results published in patent publication US20140357713A1, “ANTIMICROBIAL COMPOUNDS AND METHODS OF USE” (NexMed Holdings, Inc., priority 2012, published 2014).
Read-outs that look alike come from different tables or passages of the source.

Columns and labels:
[1] = system: Aspergillus niger (CMCC 98003); assay: Minimum inhibitory concentration (MIC) assay, Example 33; format: cell-based; settings: Aspergillus niger
Method in brief: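 Broth microdilution MIC per CLSI guidelines in RPMI 1640 with serial 2-fold compound dilutions. Spore suspension from sporulating colonies adjusted to OD530 0.09-0.13, diluted 1:50 as 2× inoculum and added 1:2 to drug wells; plates incubated at 35 °C and MIC read per CLSI.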

[2] = system: Candida albicans (ATCC 90029); assay: as above; format: cell-based; settings: Candida albicans
Method in brief: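 Broth microdilution per CLSI guidelines in RPMI 1640; inoculum set to OD530 0.08–0.13, diluted 1:50 then 1:20 to 2× strength and mixed 1:2 with 2-fold serial compound dilutions. Incubated at 35° C; MIC read per CLSI.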

pH (Table 1) = format: physicochemical
[3] = system: Candida albicans (ATCC 90029); assay: Time kill study, Example 33 (0 to 5 min); format: cell-based; settings: 1×MIC
Method in brief: (§1)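 Performed per CLSI guidelines. Strain suspensions prepared as for MIC testing were mixed with compound solution in equal volume; samples taken at 0 min, 30 sec, 1 min and 5 mins were diluted in test medium, streaked on agar, and colonies counted after 24 to 48 hrs to give viable counts in Log10 CFU/mL.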

[4] = system: Staphylococcus aureus (ATCC 29213); assay: Time kill study, Example 33 (0 to 5 min); format: cell-based; settings: 1×MIC
Method in brief: as §1

[5] = system: Pseudomonas aeruginosa (ATCC 27853); assay: Time kill study, Example 33 (0 to 5 min); format: cell-based; settings: 1×MIC
Method in brief: as §1

Pseudomonas aeruginosa = assay: Extended time kill study, Example 34 (0 to 24 h); format: cell-based
Method in brief: (§2)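 Strain suspensions prepared as for MIC testing were mixed 1:1 with compound solution at higher multiples of MIC. Samples taken over 0 to 24 h were diluted in test medium and plated on agar, and colonies were counted after 24–48 h incubation.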

Escherichia coli = assay: Extended time kill study, Example 34 (0 to 24 h); format: cell-based
Method in brief: as §2

In the case of `CCCCCCCCCCCCOC(=O)C(C)NCCN(CC)CC.Cl` (stereo not shown) [Nex-62, Dodecyl 2-((2-(diethylamino)ethyl)amino)propanoate dihydrochloride], the MIC ([1]; CMCC98003, Table 19 summary, read-out: MIC) is reported as 12.5 µg/mL, the MIC ([1]; CMCC98003, n = 1, read-out: MIC Aspergillus niger) is reported as 12.5 µg/mL and the MIC ([1]; CMCC98003, n = 2, read-out: MIC Aspergillus niger) is reported as 12.5 µg/mL. The MIC ([2]; ATCC90029, Table 19 summary, read-out: MIC) was 6.25 µg/mL, the MIC ([2]; ATCC90029, n = 1, read-out: MIC Candida albicans) was 6.25 µg/mL and the MIC ([2]; ATCC90029, n = 2, read-out: MIC Candida albicans) was 6.25 µg/mL. The pH (pH (Table 1)) was 0.73, the “Viable counts, Candida albicans time kill study” value ([3]; 0.5 min) was 5.37 Log10 CFU/mL and the “Viable counts, Candida albicans time kill study” value ([3]; 1 min) was 5.18 Log10 CFU/mL. The “Viable counts, Candida albicans time kill study” value ([3]; 5 min) was 5.16 Log10 CFU/mL, the “Viable counts, Candida albicans time kill study” value ([3]; time 0) was 5.12 Log10 CFU/mL and the “Viable counts, Staphylococcus aureus time kill study” value ([4]; 0.5 min) was 6.32 Log10 CFU/mL. The “Viable counts, Staphylococcus aureus time kill study” value ([4]; 1 min) was 6.35 Log10 CFU/mL, the “Viable counts, Staphylococcus aureus time kill study” value ([4]; 5 min) was 6.31 Log10 CFU/mL and the “Viable counts, Staphylococcus aureus time kill study” value ([4]; time 0) was 6.34 Log10 CFU/mL. The “Viable counts, Pseudomonas aeruginosa time kill study” value ([5]; 0.5 min) was 4 Log10 CFU/mL, the “Viable counts, Pseudomonas aeruginosa time kill study” value ([5]; 1 min) was less than 3.70 Log10 CFU/mL and the “Viable counts, Pseudomonas aeruginosa time kill study” value ([5]; 5 min) was less than 3.52 Log10 CFU/mL. For the same molecule, the “Viable counts, Pseudomonas aeruginosa time kill study” value ([5]; time 0) was 5.52 Log10 CFU/mL, the “Viable counts, Pseudomonas aeruginosa time kill study” value (Pseudomonas aeruginosa; 1 × MIC, 1 h) was less than 1 Log10 CFU/mL and the “Viable counts, Pseudomonas aeruginosa time kill study” value (Pseudomonas aeruginosa; 1 × MIC, 2 h) was less than 1 Log10 CFU/mL. The “Viable counts, Pseudomonas aeruginosa time kill study” value (Pseudomonas aeruginosa; 1 × MIC, 4 h) was less than 1 Log10 CFU/mL, the “Viable counts, Pseudomonas aeruginosa time kill study” value (Pseudomonas aeruginosa; 1 × MIC, 6 h) was less than 1 Log10 CFU/mL and the “Viable counts, Pseudomonas aeruginosa time kill study” value (Pseudomonas aeruginosa; 1 × MIC, 24 h) was less than 1 Log10 CFU/mL. The “Viable counts, Pseudomonas aeruginosa time kill study” value (Pseudomonas aeruginosa; 1×MIC, time 0) was 5.20 Log10 CFU/mL, the “Viable counts, Pseudomonas aeruginosa time kill study” value (Pseudomonas aeruginosa; 2 × MIC, 1 h) was less than 1 Log10 CFU/mL and the “Viable counts, Pseudomonas aeruginosa time kill study” value (Pseudomonas aeruginosa; 2 × MIC, 2 h) was less than 1 Log10 CFU/mL. For the same molecule, the “Viable counts, Pseudomonas aeruginosa time kill study” value (Pseudomonas aeruginosa; 2 × MIC, 4 h) was less than 1 Log10 CFU/mL, the “Viable counts, Pseudomonas aeruginosa time kill study” value (Pseudomonas aeruginosa; 2 × MIC, 6 h) was less than 1 Log10 CFU/mL and the “Viable counts, Pseudomonas aeruginosa time kill study” value (Pseudomonas aeruginosa; 2 × MIC, 24 h) was less than 1 Log10 CFU/mL. The “Viable counts, Pseudomonas aeruginosa time kill study” value (Pseudomonas aeruginosa; 2 × MIC, time 0) was 5.25 Log10 CFU/mL, the “Viable counts, Pseudomonas aeruginosa time kill study” value (Pseudomonas aeruginosa; 4 × MIC, 1 h) was less than 1 Log10 CFU/mL and the “Viable counts, Pseudomonas aeruginosa time kill study” value (Pseudomonas aeruginosa; 4 × MIC, 2 h) was less than 1 Log10 CFU/mL. For the same molecule, the “Viable counts, Pseudomonas aeruginosa time kill study” value (Pseudomonas aeruginosa; 4 × MIC, 4 h) was less than 1 Log10 CFU/mL, the “Viable counts, Pseudomonas aeruginosa time kill study” value (Pseudomonas aeruginosa; 4 × MIC, 6 h) was less than 1 Log10 CFU/mL and the “Viable counts, Pseudomonas aeruginosa time kill study” value (Pseudomonas aeruginosa; 4 × MIC, 24 h) was less than 1 Log10 CFU/mL. For the same molecule, the “Viable counts, Pseudomonas aeruginosa time kill study” value (Pseudomonas aeruginosa; 4 × MIC, time 0) was 5.23 Log10 CFU/mL, the “Viable counts, Escherichia coli time kill study” value (Escherichia coli; 1 × MIC, 1 h) was 1 Log10 CFU/mL and the “Viable counts, Escherichia coli time kill study” value (Escherichia coli; 1 × MIC, 2 h) was 1 Log10 CFU/mL. For the same molecule, the “Viable counts, Escherichia coli time kill study” value (Escherichia coli; 1 × MIC, 4 h) was less than 1 Log10 CFU/mL, the “Viable counts, Escherichia coli time kill study” value (Escherichia coli; 1 × MIC, 6 h) was 2.18 Log10 CFU/mL and the “Viable counts, Escherichia coli time kill study” value (Escherichia coli; 1 × MIC, 24 h) was 7.99 Log10 CFU/mL. For the same molecule, the “Viable counts, Escherichia coli time kill study” value (Escherichia coli; 1×MIC, time 0) was 5.06 Log10 CFU/mL, the “Viable counts, Escherichia coli time kill study” value (Escherichia coli; 2 × MIC, 1 h) was less than 1 Log10 CFU/mL and the “Viable counts, Escherichia coli time kill study” value (Escherichia coli; 2 × MIC, 2 h) was less than 1 Log10 CFU/mL. For the same molecule, the “Viable counts, Escherichia coli time kill study” value (Escherichia coli; 2 × MIC, 4 h) was less than 1 Log10 CFU/mL, the “Viable counts, Escherichia coli time kill study” value (Escherichia coli; 2 × MIC, 6 h) was less than 1 Log10 CFU/mL and the “Viable counts, Escherichia coli time kill study” value (Escherichia coli; 2 × MIC, 24 h) was less than 1 Log10 CFU/mL. The “Viable counts, Escherichia coli time kill study” value (Escherichia coli; 2 × MIC, time 0) was 5.18 Log10 CFU/mL, the “Viable counts, Escherichia coli time kill study” value (Escherichia coli; 4 × MIC, 1 h) was less than 1 Log10 CFU/mL and the “Viable counts, Escherichia coli time kill study” value (Escherichia coli; 4 × MIC, 2 h) was less than 1 Log10 CFU/mL. The “Viable counts, Escherichia coli time kill study” value (Escherichia coli; 4 × MIC, 4 h) was less than 1 Log10 CFU/mL, the “Viable counts, Escherichia coli time kill study” value (Escherichia coli; 4 × MIC, 6 h) was less than 1 Log10 CFU/mL and the “Viable counts, Escherichia coli time kill study” value (Escherichia coli; 4 × MIC, 24 h) was less than 1 Log10 CFU/mL. For the same molecule, the “Viable counts, Escherichia coli time kill study” value (Escherichia coli; 4 × MIC, time 0) was 5.12 Log10 CFU/mL.
